From EP4635500A1, “THERAPEUTIC AGENT FOR BACTERIAL INFECTION” (Sumitomo Pharma Co., Ltd., priority 2022, dated 2024)
≈ marks a conversion by molar mass, not a printed value. Read-outs that look alike come from different tables or passages of the source.

Columns and labels:
P. aeruginosa = assay: MIC, broth microdilution, CDC/FDA Antibiotic Resistance Isolate Bank (Example 7, Tables 10, 15); type: cell-based; settings: for MIC: Pseudomonas aeruginosa, read-out: MIC
53 CRE and CPE strains = assay: MICrange, MIC50, MIC80, MIC90 for 53 bacterial isolates (Example 5, Table 5); type: cell-based
[1] = 26 metallo-carbapenemase-producing P. aeruginosa strains, β-lactamase inhibitor µg/mL in parentheses
[2] = 96 strains of P. aeruginosa, β-lactamase inhibitor µg/mL in parentheses

## CN(C)c1cc(NC(=O)CNC(C)(C)C)c(O)c2c1C[C@H]1C[C@H]3[C@H](N(C)C)C(O)=C(C(N)=O)C(=O)[C@@]3(O)C(O)=C1C2=O [Tigecycline, tigecycline]
P. aeruginosa; [1]
  MIC against 26 metallo-carbapenemase-producing strains MIC50: 4 µg(mL)
  MIC against 26 metallo-carbapenemase-producing strains MIC90: 16 µg(mL)
  MIC against 26 metallo-carbapenemase-producing strains MICrange: 1 - 16 µg(mL)
P. aeruginosa; [2]
  MIC against 96 strains of P. aeruginosa MIC50: 4 µg(mL)
  MIC against 96 strains of P. aeruginosa MIC90: 16 µg(mL)
  MIC against 96 strains of P. aeruginosa MICrange: 0.5 - 16 µg(mL)
P. aeruginosa; P. aeruginosa KUB No. 579, AR Bank # 447
  MIC: 4 µg/mL (≈ 6.83 µM)
P. aeruginosa; P. aeruginosa KUB No. 5551, AR Bank # 54
  MIC: 16 µg/mL (≈ 27.3 µM)
P. aeruginosa; P. aeruginosa KUB No. 5561, AR Bank # 64
  MIC: 2 µg/mL (≈ 3.41 µM)
P. aeruginosa; P. aeruginosa KUB No. 5587, AR Bank # 90
  MIC: 2 µg/mL (≈ 3.41 µM)
P. aeruginosa; P. aeruginosa KUB No. 5589, AR Bank # 92
  MIC: 4 µg/mL (≈ 6.83 µM)
P. aeruginosa; P. aeruginosa KUB No. 5591, AR Bank # 94
  MIC: 8 µg/mL (≈ 13.7 µM)
P. aeruginosa; P. aeruginosa KUB No. 5592, AR Bank # 95
  MIC: 2 µg/mL (≈ 3.41 µM)
P. aeruginosa; P. aeruginosa KUB No. 5597, AR Bank # 100
  MIC: 16 µg/mL (≈ 27.3 µM)
P. aeruginosa; P. aeruginosa KUB No. 5600, AR Bank # 103
  MIC: 16 µg/mL (≈ 27.3 µM)
P. aeruginosa; P. aeruginosa KUB No. 5602, AR Bank # 105
  MIC: 8 µg/mL (≈ 13.7 µM)
P. aeruginosa; P. aeruginosa KUB No. 5605, AR Bank # 108
  MIC: 8 µg/mL (≈ 13.7 µM)
P. aeruginosa; P. aeruginosa KUB No. 5607, AR Bank # 110
  MIC: 8 µg/mL (≈ 13.7 µM)
P. aeruginosa; P. aeruginosa KUB No. 5608, AR Bank # 111
  MIC: 8 µg/mL (≈ 13.7 µM)
P. aeruginosa; P. aeruginosa KUB No. 5662, AR Bank # 229
  MIC: 16 µg/mL (≈ 27.3 µM)
P. aeruginosa; P. aeruginosa KUB No. 5663, AR Bank # 230
  MIC: 4 µg/mL (≈ 6.83 µM)
P. aeruginosa; P. aeruginosa KUB No. 5664, AR Bank # 231
  MIC: 16 µg/mL (≈ 27.3 µM)
P. aeruginosa; P. aeruginosa KUB No. 5665, AR Bank # 232
  MIC: 4 µg/mL (≈ 6.83 µM)
P. aeruginosa; P. aeruginosa KUB No. 5666, AR Bank # 23
  MIC: 8 µg/mL (≈ 13.7 µM)
P. aeruginosa; P. aeruginosa KUB No. 5667, AR Bank # 234
  MIC: 2 µg/mL (≈ 3.41 µM)
P. aeruginosa; P. aeruginosa KUB No. 5668, AR Bank # 235
  MIC: 8 µg/mL (≈ 13.7 µM)
P. aeruginosa; P. aeruginosa KUB No. 5669, AR Bank # 236
  MIC: 4 µg/mL (≈ 6.83 µM)
P. aeruginosa; P. aeruginosa KUB No. 5670, AR Bank # 237
  MIC: 2 µg/mL (≈ 3.41 µM)
P. aeruginosa; P. aeruginosa KUB No. 5671, AR Bank # 238
  MIC: 4 µg/mL (≈ 6.83 µM)
P. aeruginosa; P. aeruginosa KUB No. 5672, AR Bank # 239
  MIC: 4 µg/mL (≈ 6.83 µM)
P. aeruginosa; P. aeruginosa KUB No. 5673, AR Bank # 240
  MIC: 8 µg/mL (≈ 13.7 µM)
P. aeruginosa; P. aeruginosa KUB No. 5674, AR Bank # 241
  MIC: 4 µg/mL (≈ 6.83 µM)
P. aeruginosa; P. aeruginosa KUB No. 5675, AR Bank # 242
  MIC: 2 µg/mL (≈ 3.41 µM)
P. aeruginosa; P. aeruginosa KUB No. 5676, AR Bank # 243
  MIC: 1 µg/mL (≈ 1.71 µM)
P. aeruginosa; P. aeruginosa KUB No. 5677, AR Bank # 244
  MIC: 16 µg/mL (≈ 27.3 µM)
P. aeruginosa; P. aeruginosa KUB No. 5678, AR Bank # 245
  MIC: 16 µg/mL (≈ 27.3 µM)
P. aeruginosa; P. aeruginosa KUB No. 5679, AR Bank # 246
  MIC: 4 µg/mL (≈ 6.83 µM)
P. aeruginosa; P. aeruginosa KUB No. 5680, AR Bank # 247
  MIC: 4 µg/mL (≈ 6.83 µM)
P. aeruginosa; P. aeruginosa KUB No. 5681, AR Bank # 248
  MIC: 2 µg/mL (≈ 3.41 µM)
P. aeruginosa; P. aeruginosa KUB No. 5682, AR Bank # 249
  MIC: 4 µg/mL (≈ 6.83 µM)
P. aeruginosa; P. aeruginosa KUB No. 5684, AR Bank # 251
  MIC: 4 µg/mL (≈ 6.83 µM)
P. aeruginosa; P. aeruginosa KUB No. 5685, AR Bank # 252
  MIC: 0.5 µg/mL (≈ 0.854 µM)
P. aeruginosa; P. aeruginosa KUB No. 5686, AR Bank # 253
  MIC: 2 µg/mL (≈ 3.41 µM)
P. aeruginosa; P. aeruginosa KUB No. 5688, AR Bank # 255
  MIC: 2 µg/mL (≈ 3.41 µM)
P. aeruginosa; P. aeruginosa KUB No. 5690, AR Bank # 257
  MIC: 8 µg/mL (≈ 13.7 µM)
P. aeruginosa; P. aeruginosa KUB No. 5691, AR Bank # 258
  MIC: 2 µg/mL (≈ 3.41 µM)
P. aeruginosa; P. aeruginosa KUB No. 5692, AR Bank # 259
  MIC: 4 µg/mL (≈ 6.83 µM)
P. aeruginosa; P. aeruginosa KUB No. 5693, AR Bank # 260
  MIC: 2 µg/mL (≈ 3.41 µM)
P. aeruginosa; P. aeruginosa KUB No. 5694, AR Bank # 261
  MIC: 8 µg/mL (≈ 13.7 µM)
P. aeruginosa; P. aeruginosa KUB No. 5695, AR Bank # 262
  MIC: 2 µg/mL (≈ 3.41 µM)
P. aeruginosa; P. aeruginosa KUB No. 5696, AR Bank # 263
  MIC: 1 µg/mL (≈ 1.71 µM)
P. aeruginosa; P. aeruginosa KUB No. 5697, AR Bank # 264
  MIC: 2 µg/mL (≈ 3.41 µM)
P. aeruginosa; P. aeruginosa KUB No. 5698, AR Bank # 265
  MIC: 8 µg/mL (≈ 13.7 µM)
P. aeruginosa; P. aeruginosa KUB No. 5699, AR Bank # 266
  MIC: 8 µg/mL (≈ 13.7 µM)
P. aeruginosa; P. aeruginosa KUB No. 5700, AR Bank # 267
  MIC: 8 µg/mL (≈ 13.7 µM)
P. aeruginosa; P. aeruginosa KUB No. 5701, AR Bank # 268
  MIC: 2 µg/mL (≈ 3.41 µM)
P. aeruginosa; P. aeruginosa KUB No. 5702, AR Bank # 269
  MIC: 4 µg/mL (≈ 6.83 µM)
P. aeruginosa; P. aeruginosa KUB No. 5703, AR Bank # 270
  MIC: 8 µg/mL (≈ 13.7 µM)
P. aeruginosa; P. aeruginosa KUB No. 5704, AR Bank # 271
  MIC: 4 µg/mL (≈ 6.83 µM)
P. aeruginosa; P. aeruginosa KUB No. 5705, AR Bank # 272
  MIC: 2 µg/mL (≈ 3.41 µM)
P. aeruginosa; P. aeruginosa KUB No. 5747, AR Bank # 351
  MIC: 8 µg/mL (≈ 13.7 µM)
P. aeruginosa; P. aeruginosa KUB No. 5748, AR Bank # 352
  MIC: 8 µg/mL (≈ 13.7 µM)
P. aeruginosa; P. aeruginosa KUB No. 5749, AR Bank # 353
  MIC: 2 µg/mL (≈ 3.41 µM)
P. aeruginosa; P. aeruginosa KUB No. 5750, AR Bank # 354
  MIC: 4 µg/mL (≈ 6.83 µM)
P. aeruginosa; P. aeruginosa KUB No. 5751, AR Bank # 355
  MIC: 8 µg/mL (≈ 13.7 µM)
P. aeruginosa; P. aeruginosa KUB No. 5752, AR Bank # 356
  MIC: 2 µg/mL (≈ 3.41 µM)
P. aeruginosa; P. aeruginosa KUB No. 5753, AR Bank # 357
  MIC: 8 µg/mL (≈ 13.7 µM)
P. aeruginosa; P. aeruginosa KUB No. 5754, AR Bank # 358
  MIC: 4 µg/mL (≈ 6.83 µM)
P. aeruginosa; P. aeruginosa KUB No. 5755, AR Bank # 359
  MIC: 4 µg/mL (≈ 6.83 µM)
P. aeruginosa; P. aeruginosa KUB No. 5756, AR Bank # 360
  MIC: 4 µg/mL (≈ 6.83 µM)
P. aeruginosa; P. aeruginosa KUB No. 5785, AR Bank # 439
  MIC: 4 µg/mL (≈ 6.83 µM)
P. aeruginosa; P. aeruginosa KUB No. 5786, AR Bank # 440
  MIC: 8 µg/mL (≈ 13.7 µM)
P. aeruginosa; P. aeruginosa KUB No. 5787, AR Bank # 441
  MIC: 4 µg/mL (≈ 6.83 µM)
P. aeruginosa; P. aeruginosa KUB No. 5788, AR Bank # 443
  MIC: 4 µg/mL (≈ 6.83 µM)
P. aeruginosa; P. aeruginosa KUB No. 5789, AR Bank # 444
  MIC: 4 µg/mL (≈ 6.83 µM)
P. aeruginosa; P. aeruginosa KUB No. 5790, AR Bank # 445
  MIC: 4 µg/mL (≈ 6.83 µM)
P. aeruginosa; P. aeruginosa KUB No. 5793, AR Bank # 449
  MIC: 4 µg/mL (≈ 6.83 µM)
P. aeruginosa; P. aeruginosa KUB No. 5798, AR Bank # 455
  MIC: 1 µg/mL (≈ 1.71 µM)
P. aeruginosa; P. aeruginosa KUB No. 5799, AR Bank # 456
  MIC: 8 µg/mL (≈ 13.7 µM)
P. aeruginosa; P. aeruginosa KUB No. 5800, AR Bank # 457
  MIC: 2 µg/mL (≈ 3.41 µM)
P. aeruginosa; P. aeruginosa KUB No. 5801, AR Bank # 458
  MIC: 8 µg/mL (≈ 13.7 µM)
P. aeruginosa; P. aeruginosa KUB No. 5802, AR Bank # 459
  MIC: 4 µg/mL (≈ 6.83 µM)
P. aeruginosa; P. aeruginosa KUB No. 5804, AR Bank # 862
  MIC: 8 µg/mL (≈ 13.7 µM)
P. aeruginosa; P. aeruginosa KUB No. 5805, AR Bank # 863
  MIC: 8 µg/mL (≈ 13.7 µM)
P. aeruginosa; P. aeruginosa KUB No. 5806, AR Bank # 864
  MIC: 2 µg/mL (≈ 3.41 µM)
P. aeruginosa; P. aeruginosa KUB No. 5813, AR Bank # 508
  MIC: 0.016 µg/mL (≈ 0.0273 µM)
P. aeruginosa; P. aeruginosa KUB No. 5814, AR Bank # 509
  MIC: 0.008 µg/mL (≈ 0.0137 µM)
P. aeruginosa; P. aeruginosa KUB No. 5815, AR Bank # 510
  MIC: 0.002 µg/mL (≈ 0.00341 µM)
P. aeruginosa; P. aeruginosa KUB No. 5816, AR Bank # 511
  MIC: 0.004 µg/mL (≈ 0.00683 µM)
P. aeruginosa; P. aeruginosa KUB No. 5817, AR Bank # 512
  MIC: 0.016 µg/mL (≈ 0.0273 µM)
P. aeruginosa; P. aeruginosa KUB No. 5818, AR Bank # 513
  MIC: 0.008 µg/mL (≈ 0.0137 µM)
P. aeruginosa; P. aeruginosa KUB No. 5819, AR Bank # 514
  MIC: 0.004 µg/mL (≈ 0.00683 µM)
P. aeruginosa; P. aeruginosa KUB No. 5820, AR Bank # 515
  MIC: 0.008 µg/mL (≈ 0.0137 µM)
P. aeruginosa; P. aeruginosa KUB No. 5821, AR Bank # 516
  MIC: 0.004 µg/mL (≈ 0.00683 µM)
P. aeruginosa; P. aeruginosa KUB No. 5823, AR Bank # 518
  MIC: 0.016 µg/mL (≈ 0.0273 µM)
P. aeruginosa; P. aeruginosa KUB No. 5831, AR Bank # 526
  MIC: 0.004 µg/mL (≈ 0.00683 µM)
P. aeruginosa; P. aeruginosa KUB No. 5832, AR Bank # 527
  MIC: 0.002 µg/mL (≈ 0.00341 µM)
P. aeruginosa; P. aeruginosa KUB No. 5833, AR Bank # 528
  MIC: 0.004 µg/mL (≈ 0.00683 µM)
P. aeruginosa; P. aeruginosa KUB No. 5834, AR Bank # 529
  MIC: 0.004 µg/mL (≈ 0.00683 µM)
53 CRE and CPE strains; 53 CRE and CPE strains, read-out: MIC90
  MIC90: 2 µg/mL (≈ 3.41 µM)
53 CRE and CPE strains; 53 bacterial isolates
  MIC90: 2 µg/mL (≈ 3.41 µM)
  MICrange: 0.12 to 16 µg/mL
53 CRE and CPE strains; 53 bacterial isolates, read-out: MIC50
  MIC50: 0.5 µg/mL (≈ 0.854 µM)
53 CRE and CPE strains; 53 bacterial isolates, read-out: MIC80
  MIC80: 1 µg/mL (≈ 1.71 µM)
